Measurements reported in US11225462B2, “Crystal forms of oxypyridine amide derivative and preparation method therefor” (JIANGSU HENGRUI MEDICINE CO., LTD., priority 2018, dated 2022).

Assays:
Format in all cases: physicochemical
[1] = Influencing factor experiments (light, high temperature, high humidity, 30 days); conditions: for Crystal form: day 5 to day 10, time not clear
Procedure: Crystal forms A, B, D and F of the compound of formula (I) were spread and left open to the air, and under conditions of high temperature (40° C. and 60° C.), light (4500 Lux), high humidity (RH 75% and RH 90%), the stability thereof were investigated for a period of 30 days.

[2] = Long-term and accelerated stability experiments (3 months)
Procedure: The long-term (25° C., 60% RH) and accelerated (40° C., 75% RH) stability of crystal form A and crystal form F of the compound of formula (I) were investigated for 3 months.

[3] = DVS (dynamic vapor sorption) hygroscopicity characterization; conditions: for mass increase under normal conditions: 25° C. and 60% RH; for hygroscopicity according to guidelines for drug hygroscopicity test in China Pharmacopoeia (2015 edition) / mass increase as the humidity increases: 25° C., 10% RH to 80% RH; for mass increase under accelerated test conditions: 70% RH; for mass increase under extreme conditions: 90% RH; for desorption process and adsorption process of the sample: humidity change from 0% to 95%
Procedure: DVS refers to dynamic vapor sorption and is determined using SMS DVS Advantage at 25° C., with the humidity change of 50%-95%-0%-95%-50% and the stepping of 10% (5% for the last step) (the specific humidity range is determined in accordance with the corresponding plot, and the methods listed herein are those most commonly used), and the standard for determination is as follow: dm/dt is not more than 0.02%, and Tmax is not more than 360 min.

CCC(=O)c1ccc(Cl)cc1-c1cc(=O)n([C@@H](CCOC(C)(C)C)C(=O)Nc2ccc(C(=O)O)cc2)cc1OC [Crystal form F, (S)-4-(4-(tert-butoxy)-2-(4-(5-chloro-2-propionylphenyl)-5-methoxy-2-oxopyridin-1(2H)-yl)butanamido)benzoic acid]
% Purity ([1]; 40° C., 5 days): 99.67%
% Purity ([1]; 40° C., 10 days): 99.62%
% Purity ([1]; 40° C., 30 days): 99.57%
% Purity ([1]; 60° C., 5 days): 99.68%
% Purity ([1]; 60° C., 10 days): 99.65%
% Purity ([1]; 60° C., 30 days): 99.59%
% Purity ([1]; 4500 Lux, 5 days): 99.66%
% Purity ([1]; 4500 Lux, 10 days): 99.64%
% Purity ([1]; 4500 Lux, 30 days): 99.64%
% Purity ([1]; Initial condition, day 0): 99.67%
% Purity ([1]; RH 75%, 5 days): 99.65%
% Weight gain ([1]; RH 75%, 5 days): 5.23%
% Purity ([1]; RH 75%, 10 days): 99.63%
% Weight gain ([1]; RH 75%, 10 days): 5.34%
% Purity ([1]; RH 75%, 30 days): 99.62%
% Weight gain ([1]; RH 75%, 30 days): 10.03%
% Purity ([1]; RH 90%, 5 days): 99.66%
% Weight gain ([1]; RH 90%, 5 days): 7.26%
% Purity ([1]; RH 90%, 10 days): 99.63%
% Weight gain ([1]; RH 90%, 10 days): 8.40%
% Purity ([1]; RH 90%, 30 days): 99.65%
% Weight gain ([1]; RH 90%, 30 days): 12.83%
physical and chemical stability (conclusion) ([1]; light, 40° C., 60° C., 75% RH or 90% RH for 30 days): good physical and chemical stability
% Purity 1 month ([2]; 25° C., 60% RH): 99.68%
% Purity 2 months ([2]; 25° C., 60% RH): 99.65%
% Purity 3 months ([2]; 25° C., 60% RH): 99.65%
% Purity Initial condition ([2]; 25° C., 60% RH): 99.69%
% Purity 1 month ([2]; 40° C., 75% RH): 99.68%
% Purity 2 months ([2]; 40° C., 75% RH): 99.67%
% Purity 3 months ([2]; 40° C., 75% RH): 99.66%
% Purity Initial condition ([2]; 40° C., 75% RH): 99.69%
physical and chemical stability (conclusion) ([2]; long-term (25° C., 60% RH) and accelerated (40° C., 75% RH) conditions for 3 months): good physical and chemical stability
mass increase under normal conditions [3]: about 0.0457%
hygroscopicity according to guidelines for drug hygroscopicity test in China Pharmacopoeia (2015 edition) [3]: hardly hygroscopic (less than 2%)
mass increase as the humidity increases [3]: about 0.1464%
mass increase under accelerated test conditions [3]: about 0.0701%
mass increase under extreme conditions [3]: about 0.2744%
crystal form before and after DVS detection (XRPD comparison) [3]: unchanged
desorption process and adsorption process of the sample [3]: basically coincide

CCC(=O)c1ccc(Cl)cc1-c1cc(=O)n([C@@H](CCOC(C)(C)C)C(=O)Nc2ccc(C(=O)O)cc2)cc1OC [Crystal form B, (S)-4-(4-(tert-butoxy)-2-(4-(5-chloro-2-propionylphenyl)-5-methoxy-2-oxopyridin-1(2H)-yl)butanamido)benzoic acid]
% Purity ([1]; 40° C., 15 days): 98.99%
Color and trait ([1]; 40° C., 15 days): Light yellow
% Purity ([1]; 40° C., 30 days): 98.57%
Color and trait ([1]; 40° C., 30 days): Light yellow
% Purity ([1]; 60° C., 15 days): 99.10%
Color and trait ([1]; 60° C., 15 days): Light yellow
% Purity ([1]; 60° C., 30 days): 98.60%
Color and trait ([1]; 60° C., 30 days): Light yellow
% Purity ([1]; 4500 Lux, 15 days): 99.01%
Color and trait ([1]; 4500 Lux, 15 days): Yellow solid
% Purity ([1]; 4500 Lux, 30 days): 98.71%
Color and trait ([1]; 4500 Lux, 30 days): Yellow solid
% Purity ([1]; Initial condition, day 0): 99.65%
Color and trait ([1]; Initial condition, day 0): Light yellow
% Purity ([1]; RH 75%, 15 days): 99.62%
% Weight gain ([1]; RH 75%, 15 days): 6.76%
Color and trait ([1]; RH 75%, 15 days): Light yellow
% Purity ([1]; RH 75%, 30 days): 99.59%
% Weight gain ([1]; RH 75%, 30 days): 8.34%
Color and trait ([1]; RH 75%, 30 days): Light yellow
% Purity ([1]; RH 90%, 15 days): 99.64%
% Weight gain ([1]; RH 90%, 15 days): 14.89%
Color and trait ([1]; RH 90%, 15 days): Light yellow
% Purity ([1]; RH 90%, 30 days): 99.56%
% Weight gain ([1]; RH 90%, 30 days): 19.11%
Color and trait ([1]; RH 90%, 30 days): Light yellow
mass increase under normal conditions [3]: about 1.155%
hygroscopicity according to guidelines for drug hygroscopicity test in China Pharmacopoeia (2015 edition) [3]: slightly hygroscopic (less than 2% but not less than 0.2%)
mass increase as the humidity increases [3]: about 1.968%
mass increase under accelerated test conditions [3]: about 1.530%
mass increase under extreme conditions [3]: about 3.963%
crystal form before and after DVS detection (XRPD comparison) [3]: change to crystal form A
desorption process and adsorption process of the sample [3]: basically coincide

CCC(=O)c1ccc(Cl)cc1-c1cc(=O)n([C@@H](CCOC(C)(C)C)C(=O)Nc2ccc(C(=O)O)cc2)cc1OC [Crystal form D, (S)-4-(4-(tert-butoxy)-2-(4-(5-chloro-2-propionylphenyl)-5-methoxy-2-oxopyridin-1(2H)-yl)butanamido)benzoic acid]
% Purity ([1]; 40° C., 5 days): 99.53%
Color and trait ([1]; 40° C., 5 days): Off-white
% Purity ([1]; 40° C., 10 days): 99.02%
Color and trait ([1]; 40° C., 10 days): Off-white
% Purity ([1]; 40° C., 30 days): 98.95%
Color and trait ([1]; 40° C., 30 days): Off-white
Crystal form ([1]; 40° C.): Amor-
% Purity ([1]; 60° C., 5 days): 99.40%
Color and trait ([1]; 60° C., 5 days): Off-white
% Purity ([1]; 60° C., 10 days): 99.31%
Color and trait ([1]; 60° C., 10 days): Off-white
% Purity ([1]; 60° C., 30 days): 99.09%
Color and trait ([1]; 60° C., 30 days): Off-white
Crystal form ([1]; 60° C.): Amor-
% Purity ([1]; 4500 Lux, 5 days): 99.58%
Color and trait ([1]; 4500 Lux, 5 days): Off-white
% Purity ([1]; 4500 Lux, 10 days): 99.57%
Color and trait ([1]; 4500 Lux, 10 days): Off-white
% Purity ([1]; 4500 Lux, 30 days): 99.26%
Color and trait ([1]; 4500 Lux, 30 days): Off-white
Crystal form ([1]; 4500 Lux): Amor-
% Purity ([1]; Initial condition, day 0): 99.59%
Color and trait ([1]; Initial condition, day 0): Off-white
% Purity ([1]; RH 75%, 5 days): 99.56%
% Weight gain ([1]; RH 75%, 5 days): 5.30%
Color and trait ([1]; RH 75%, 5 days): Off-white
% Purity ([1]; RH 75%, 10 days): 99.53%
% Weight gain ([1]; RH 75%, 10 days): 5.48%
Color and trait ([1]; RH 75%, 10 days): Off-white
% Purity ([1]; RH 75%, 30 days): 99.55%
% Weight gain ([1]; RH 75%, 30 days): 5.56%
Color and trait ([1]; RH 75%, 30 days): Off-white
Crystal form ([1]; RH 75%): Amor-
% Purity ([1]; RH 90%, 5 days): 99.57%
% Weight gain ([1]; RH 90%, 5 days): 7.45%
Color and trait ([1]; RH 90%, 5 days): Off-white
% Purity ([1]; RH 90%, 10 days): 99.54%
% Weight gain ([1]; RH 90%, 10 days): 8.67%
Color and trait ([1]; RH 90%, 10 days): Off-white
% Purity ([1]; RH 90%, 30 days): 99.55%
% Weight gain ([1]; RH 90%, 30 days): 9.53%
Color and trait ([1]; RH 90%, 30 days): Off-white
Crystal form ([1]; RH 90%): Amor-
mass increase under normal conditions [3]: about 2.143%
hygroscopicity according to guidelines for drug hygroscopicity test in China Pharmacopoeia (2015 edition) [3]: hygroscopic (less than 15% but not less than 2%)
mass increase as the humidity increases [3]: about 2.420%
mass increase under accelerated test conditions [3]: about 2.494%
mass increase under extreme conditions [3]: about 3.422%
crystal form before and after DVS detection (XRPD comparison) [3]: crystallinity of the crystal form become worse
desorption process and adsorption process of the sample [3]: do not coincide
